Measured values: patent US20230118142A1, “AGENTS FOR USE IN THE TREATMENT OF TISSUE DAMAGE” (UCL BUSINESS LTD, priority 2020, published 2023)

Assays:
Set-up in all cases: The final concentrations were 0.73 μM native pentameric CRP; from tissue
[1] = target: T1, CRP (Homo sapiens, UniProt P02741); test: Immobilised phosphocholine plate assay (125I-CRP binding); conditions: read-out: IC50 for inhibition of 125I-CRP binding to immobilised phosphocholine
T1 sequence (P02741 19-224): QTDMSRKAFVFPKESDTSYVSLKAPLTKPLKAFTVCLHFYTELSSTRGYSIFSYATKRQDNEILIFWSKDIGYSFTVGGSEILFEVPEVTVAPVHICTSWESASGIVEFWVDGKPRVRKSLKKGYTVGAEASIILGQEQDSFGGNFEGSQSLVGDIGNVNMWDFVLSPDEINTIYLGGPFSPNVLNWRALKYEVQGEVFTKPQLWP
Experimental: (i) Phosphocholine was immobilised on Greiner NHS-activated microtitre plates by incubation with 4-aminophenyl-1-phosphocholine. Remaining active sites were blocked by incubation with 4% w/v BSA in TC buffer (TCB).
(ii) Human CRP at 1 μg/ml in TC buffer was spiked with ^125I-labelled CRP to provide 10^6 cpm/ml.
(iii) Compounds were prepared from up to 10 mM stock solutions by dilution in TC buffer to 0.5 mM (labelled S1). Serial dilutions were prepared by diluting 100 μl ligand solution with 200 μl TC buffer (S2-S10). A ligand-free control was also used (SO, TC only).
(iv) A 100 μl volume of CRP solution was incubated with 10 μl of each compound (S1-S10, SO) for 1 h at room temperature without stirring, to provide final ligand concentrations across the range 45.5 μM-6.9 nM with a ligand:CRP monomer molar ratio of 1151-0.06. In some cases, single fixed ligand concentrations were also assayed in comparison with PC.
(v) A 100 μl volume of each CRP-ligand mixture was added to the plate wells and incubated for 2 h at room temperature. Solutions were then discarded and the plates washed with TCB buffer. Bound radioactivity was measured (1 min counts) using a gamma counter (Perkin Elmer Wizard 2470).
(vi) Data were plotted with Sigmaplot v14 software using the 4-parameter logistic curve y=min+(max−min)/(1+(x/EC50)^−Hill slope) to calculate IC50.

[2] = target: T1, CRP; test: Roche immunoturbidimetric assay: pure CRP; format: binding; conditions: pure CRP in TC buffer; read-out: IC50 (μM), SD; inhibition of Roche CRP immunoreactivity
Experimental: (i) Human CRP at ˜90 μg/ml (3.9 μM monomer or 0.78 μM pentamer) in TC buffer was prepared from a stock solution; a 75 μl aliquot was used in the assay.
(ii) Compounds were prepared from stock solutions at up to 10 mM in TC (labelled S1). They were serially diluted with TC buffer (100 μl ligand+200 μl TC) to provide up to 9 dilutions, S2-S10. A TC buffer control (S0) was included in each assay.
(iii) A 15 μl volume of each ligand solution was incubated with 75 μl of CRP for 1 h at 37° C. The final concentrations were CRP pentamer=0.73 μM, ligands S1-S10=625-0.03 μM, corresponding to ligand:CRP pentamer ratios of 853-0.04.
(iv) CRP concentrations were measured by the Roche microparticle-enhanced immunoturbidimetric assay (10) on the COBAS MIRA autoanalyser, and results expressed as a percentage of the CRP control.
(v) Data were plotted using Sigmaplot (V14) using the 4 parameter logistic curve y=min+(max−min)/(1+(x/EC50)^−Hill slope) to calculate EC50.
(vii) All compounds were assayed in comparison with a highly purified preparation of BPC8, that was prepared by Carbogen AMCIS AG, dissolved in sterile water and diluted into TC buffer as required.
The immunoturbidimetric CRP assay on the Roche COBAS MIRA Plus autoanalyser, utilises two different sized microparticles that are covalently coupled with two different monoclonal antibodies, which recognise different CRP epitopes. The assay was developed by Roche for clinical measurement of CRP serum and plasma with high sensitivity and a very wide dynamic range. Serendipitously, one of the two antibodies binds to an epitope present on the ligand binding B-face of CRP. Thus, when the binding pocket is occupied by ligand and, especially, when the B-face is occluded by the B-face to B-face interaction of two native CRP pentamers produced by cross linking via our unique bivalent ligands, the assay fails to detect the CRP. In contrast, the CRP is all detected and assayed normally by other assays that disrupt the crosslinking and/or use antibodies which recognise different, non-occluded, epitopes. Inhibition of CRP recognition in the Roche assay is thus a convenient tool to monitor the efficacy and potency of complex formation between our unique ligands and CRP.

[3] = target: T1, CRP; test: Size exclusion chromatography of CRP/ligand cross linking; format: binding; conditions: CRP/ligand complex re-chromatographed in absence of free ligand
Experimental: (i) Ligands were diluted to 0.5 mM in TC buffer from up to 10 mM stocks. Serial dilutions were prepared as required. […]
(iii) The complex was chromatographed on a Superdex200 column (10/300 GL; 24 ml bed volume), connected to the ÅKTA100 Explorer HPLC system, and equilibrated and eluted in TC buffer at 0.5 ml/min. Eluates were monitored at 280 nm and fractions (0.5 ml) collected as required.
Size exclusion chromatography on a Superdex 200 column equilibrated and eluted with TC buffer pH 8.0, and calibrated with standard globular marker proteins and with human CRP, the native CRP pentamer (Mr 115 kDa) eluted at 13.9 ml (range 13.7-14.0 ml, n=10).

| IC50 [2] [µM] | Structure (SMILES) | IC50 [1] [nM] | Stable to rechromatography [3] |
| --- | --- | --- | --- |
| – | O=P(O)(OCCCCCCCCCOP(=O)(O)O[C@@H]1CN2CCC1CC2)O[C@@H]1CN2CCC1CC2 [Pk-028, Nonane-1,9-diyl di(S)-quinuclidin-3-yl) bis(hydrogen phosphate] | 160 | – |
| – | O=P(O)(OCCCCCCCOP(=O)(O)OC1CN2CCC1CC2)OC1CN2CCC1CC2 [Pk-026, Heptane-1,7-diyl di(S)-quinuclidin-3-yl) bis(hydrogen phosphate] | 180 | – |
| – | O=P(O)(OCCCCCCCCCCOP(=O)(O)O[C@@H]1CN2CCC1CC2)O[C@@H]1CN2CCC1CC2 [Pk-027, Decane-1,10-diyl di(S)-quinuclidin-3-yl) bis(hydrogen phosphate] | 180 | – |
| 0.59 | CC(C)(CCCCC(C)(C)COP(=O)(O)O[C@@H]1CN2CCC1CC2)COP(=O)(O)O[C@@H]1CN2CCC1CC2 [Pk-033, [(3S)-1-azabicyclo[2.2.2]octan-3-yloxy]({[8-({[(3S)-1-azabicyclo[2.2.2]octan-3-yloxy](hydroxy)phosphoryl}oxy)-2,2,7,7-tetramethyloctyl]oxy})phosphinic acid] | – | – |
| 1.08 | O=P(O)(OCCCCCCOP(=O)(O)O[C@@H]1CN2CCC1CC2)O[C@@H]1CN2CCC1CC2 [Pk-025, Hexane-1,6-diyl di(S)-quinuclidin-3-yl) bis(hydrogen phosphate] | 280 | – |
| 9.92 | O=C(CCCCCCC(=O)NC(C(=O)O)[C@H]1CN2CCC1CC2)NC(C(=O)O)[C@H]1CN2CCC1CC2 (stereo partly drawn) [Compound P1d-6, 2-[(3R)-1-azabicyclo[2.2.2]octan-3-yl]-2-[7-({[(3R)-1-azabicyclo[2.2.2]octan-3-yl](carboxy)methyl}carbamoyl)heptanamido]acetic acid] | – | – |
| 127 | CN(C)CCOP(=O)(O)OCCCCCCCCOP(=O)(O)OCCN(C)C [Dm-BPC8, bis(2-(dimethylamino)ethyl) octane-1,8-diyl bis(hydrogen phosphate), reference compound] | – | – |
| > 400 | O=C(CC(=O)NC(C(=O)O)[C@H]1CN2CCC1CC2)NC(C(=O)O)[C@H]1CN2CCC1CC2 (stereo partly drawn) [Compound P1d-1, 2-[(3R)-1-azabicyclo[2.2.2]octan-3-yl]-2-(2-{[[(3R)-1-azabicyclo[2.2.2]octan-3-yl](carboxy)methyl]carbamoyl}acetamido)acetic acid] | – | – |
| > 400 | O=C(CCCCCC(=O)NC(C(=O)O)[C@H]1CN2CCC1CC2)NC(C(=O)O)[C@H]1CN2CCC1CC2 (stereo partly drawn) [Compound P1d-5, 2-[(3R)-1-azabicyclo[2.2.2]octan-3-yl]-2-(6-{[[(3R)-1-azabicyclo[2.2.2]octan-3-yl](carboxy)methyl]carbamoyl}hexanamido)acetic acid] | – | – |
| 0.97 | O=C(NC(C(=O)O)[C@H]1CN2CCC1CC2)C(=O)NC(C(=O)O)[C@H]1CN2CCC1CC2 (stereo partly drawn) [Compound P1d-0, 2-[(3R)-1-azabicyclo[2.2.2]octan-3-yl]-2-[({[(3R)-1-azabicyclo[2.2.2]octan-3-yl](carboxy)methyl}carbamoyl)formamido]acetic acid] | – | – |
| 26.2 | O=C(NC(C(=O)O)[C@H]1CN2CCC1CC2)NC(C(=O)O)[C@H]1CN2CCC1CC2 (stereo partly drawn) [Compound P2B-G, 2-[[-carboxy-[(3R)-quinuclidin-3-yl]methyl]carbamoylamino]-2-[(3R)-quinuclidin-3-yl]acetic acid] | – | – |
| > 400 | O=C(CCCC(=O)NC(C(=O)O)[C@H]1CN2CCC1CC2)NC(C(=O)O)[C@H]1CN2CCC1CC2 (stereo partly drawn) [Compound P1d-3, 2-[(3R)-1-azabicyclo[2.2.2]octan-3-yl]-2-(4-{[[(3R)-1-azabicyclo[2.2.2]octan-3-yl](carboxy)methyl]carbamoyl}butanamido)acetic acid] | – | – |
| > 400 | O=C(CCCCCCCC(=O)NC(C(=O)O)[C@H]1CN2CCC1CC2)NC(C(=O)O)[C@H]1CN2CCC1CC2 (stereo partly drawn) [Compound P1d-7, 2-[(3R)-1-azabicyclo[2.2.2]octan-3-yl]-2-(8-{[[(3R)-1-azabicyclo[2.2.2]octan-3-yl](carboxy)methyl]carbamoyl}octanamido)acetic acid] | – | – |
| 0.72 | CC(C)(C/C=C/CC(C)(C)COP(=O)(O)O[C@@H]1CN2CCC1CC2)COP(=O)(O)O[C@@H]1CN2CCC1CC2 [Pk-032, di((S)-1-azabicyclo[2.2.2]octan-3-yl) (E)-2,2,7,7-tetramethyloct-4-ene-1,8-diyl bis(hydrogen phosphate)] | – | – |

| Structure (SMILES) | IC50 [2] [µM] | IC50 [1] [nM] | Stable to rechromatography [3] |
| --- | --- | --- | --- |
| O=C(Cc1ccc(CC(=O)NC(C(=O)O)[C@H]2CN3CCC2CC3)cc1)NC(C(=O)O)[C@H]1CN2CCC1CC2 (stereo partly drawn) [Compound P2B-C, 2-[[2-[4-[2-[[carboxy-[(3R)-quinuclidin-3-yl]methyl]amino]-2-oxo-ethyl]phenyl]acetyl]amino]-2-[(3R)-quinuclidin-3-yl]acetic acid] | 2.69 | – | – |
| O=C(CC(c1ccccc1)C(CC(=O)NC(C(=O)O)[C@H]1CN2CCC1CC2)c1ccccc1)NC(C(=O)O)[C@H]1CN2CCC1CC2 (single isomer, unassigned) [P2B-D peak1] | 0.66 | – | Yes |
| C[N+]12CCC(CC1)[C@@H](C(NC(=O)CCCCC(=O)NC(C(=O)O)[C@H]1C[N+]3(C)CCC1CC3)C(=O)O)C2 (stereo partly drawn) [Compound P1d-4A, (3R)-3-{carboxy[5-({carboxy[(3R)-1-methyl-1-azabicyclo[2.2.2]octan-1-ium-3-yl]methyl}carbamoyl)pentanamido]methyl}-1-methyl-1-azabicyclo[2.2.2]octan-1-ium] | 1.43 | – | – |
| O=C(CCCCC(=O)NC(C(=O)O)C1CN2CCC1CC2)NC(C(=O)O)C1CN2CCC1CC2 [Compound P1d-4, 2-[(3R)-1-azabicyclo[2.2.2]octan-3-yl]-2-(8-{[[(3R)-1-azabicyclo[2.2.2]octan-3-yl](carboxy)methyl]carbamoyl}pentamido)acetic acid] | < 2 | – | Partial |
| O=C(CCC(=O)NC(C(=O)O)[C@H]1CN2CCC1CC2)NC(C(=O)O)[C@H]1CN2CCC1CC2 (stereo partly drawn) [Compound P1d-2, 2-[(3R)-1-azabicyclo[2.2.2]octan-3-yl]-2-[3-({[(3R)-1-azabicyclo[2.2.2]octan-3-yl](carboxy)methyl}carbamoyl)propanamido]acetic acid] | < 2 | – | Yes |
